Several values for one entry are separate records, joined by “and”; a condition that tells them apart may be missing. Equal values may be shown once. Inconclusive results and toxic doses are left out. Rule as the data show it: active = T/C of 150% or more; inactive = T/C below 125%.
Tested on: L1210 leukemia ip in BDF1 mice, survival T/C
Experiment: NCI In Vivo Anticancer Drug Screen. Data for tumor model L1210 Leukemia (intraperitoneal) in B6D2F1 (BDF1) mice
Settings: endpoint: mean survival time, higher = longer survival
Procedure, shortened: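 Survival endpoint. Drug-treated group vs vehicle group, expressed as T divided by C. Tumor passaged by transplantation.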

[1] = dose: 100.0 mg/kg/injection, schedule: Q01DX001 (ip), vehicle: carboxymethylcellulose (CMC)
[2] = dose: 200.0 mg/kg/injection, schedule: Q01DX001 (ip), vehicle: carboxymethylcellulose (CMC)
[3] = dose: 400.0 mg/kg/injection, schedule: Q01DX001 (ip), vehicle: carboxymethylcellulose (CMC)
[4] = dose: 50.0 mg/kg/injection, schedule: Q01DX009 (ip), vehicle: Klucel (hydroxypropylcellulose) (HPC)
[5] = dose: 100.0 mg/kg/injection, schedule: Q01DX001 (ip), vehicle: Klucel (hydroxypropylcellulose) (HPC)
[6] = dose: 100.0 mg/kg/injection, schedule: Q04DX002 (ip), vehicle: Klucel (hydroxypropylcellulose) (HPC)
[7] = dose: 200.0 mg/kg/injection, schedule: Q04DX002 (ip), vehicle: Klucel (hydroxypropylcellulose) (HPC)
[8] = dose: 400.0 mg/kg/injection, schedule: Q04DX002 (ip), vehicle: Klucel (hydroxypropylcellulose) (HPC)
[9] = dose: 50.0 mg/kg/injection, schedule: Q01DX009 (ip), vehicle: saline with Tween-80
[10] = dose: 100.0 mg/kg/injection, schedule: Q01DX009 (ip), vehicle: saline with Tween-80
[11] = dose: 200.0 mg/kg/injection, schedule: Q01DX009 (ip), vehicle: saline with Tween-80
[12] = dose: 100.0 mg/kg/injection, schedule: Q04DX003 (ip), vehicle: Klucel (hydroxypropylcellulose) (HPC)
[13] = dose: 200.0 mg/kg/injection, schedule: Q04DX003 (ip), vehicle: Klucel (hydroxypropylcellulose) (HPC)
[14] = dose: 100.0 mg/kg/injection, schedule: Q01DX009 (ip), vehicle: Klucel (hydroxypropylcellulose) (HPC)
[15] = dose: 200.0 mg/kg/injection, schedule: Q01DX009 (ip), vehicle: Klucel (hydroxypropylcellulose) (HPC)
[16] = dose: 400.0 mg/kg/injection, schedule: Q04DX003 (ip), vehicle: Klucel (hydroxypropylcellulose) (HPC)
[17] = dose: 100.0 mg/kg/injection, schedule: Q01DX001 (ip), vehicle: saline with Tween-80

Measured: T/C

COc1cc(C2c3cc4c(cc3C(O)C(CO)C2CO)OCO4)cc(OC)c1OC (stereo not given)
inactive: dose: 8.75 mg/kg/injection, schedule: Q01DX Z (ip), vehicle: carboxymethylcellulose (CMC) 100 % of control | dose: 11.5 mg/kg/injection, schedule: Q01DX Z (ip), vehicle: carboxymethylcellulose (CMC) 108 % of control | dose: 17.0 mg/kg/injection, schedule: Q01DX Z (ip), vehicle: carboxymethylcellulose (CMC) 113 % of control | dose: 17.5 mg/kg/injection, schedule: Q01DX Z (ip), vehicle: carboxymethylcellulose (CMC) 114 % of control | dose: 26.0 mg/kg/injection, schedule: Q01DX Z (ip), vehicle: carboxymethylcellulose (CMC) 120 % of control | dose: 35.0 mg/kg/injection, schedule: Q01DX Z (ip), vehicle: carboxymethylcellulose (CMC) 106 % of control | dose: 37.5 mg/kg/injection, schedule: Q04DX003 (ip), vehicle: saline 98 % of control | dose: 50.0 mg/kg/injection, schedule: Q01DX001 (ip), vehicle: carboxymethylcellulose (CMC) 95 % of control | dose: 70.0 mg/kg/injection, schedule: Q01DX Z (ip), vehicle: carboxymethylcellulose (CMC) 98 % of control | dose: 75.0 mg/kg/injection, schedule: Q04DX003 (ip), vehicle: saline 118 % of control | [1] 104 % of control | dose: 140.0 mg/kg/injection, schedule: Q01DX Z (ip), vehicle: carboxymethylcellulose (CMC) 100 % of control and 121 % of control | dose: 150.0 mg/kg/injection, schedule: Q04DX003 (ip), vehicle: saline 110 % of control | [2] 101 % of control | dose: 280.0 mg/kg/injection, schedule: Q01DX Z (ip), vehicle: carboxymethylcellulose (CMC) 105 % of control | [3] 98 % of control

CN1CCS(=O)(=O)C1=O
inactive: dose: 9.5 mg/kg/injection, schedule: Q01DX001 (ip), vehicle: saline 98 % of control | dose: 19.0 mg/kg/injection, schedule: Q01DX001 (ip), vehicle: saline 98 % of control | dose: 38.0 mg/kg/injection, schedule: Q01DX001 (ip), vehicle: saline 109 % of control

ONC12CC3CC(CC(C3)C1)C2
inactive: dose: 12.5 mg/kg/injection, schedule: Q01DX009 (ip), vehicle: Klucel (hydroxypropylcellulose) (HPC) 98 % of control | dose: 25.0 mg/kg/injection, schedule: Q01DX009 (ip), vehicle: Klucel (hydroxypropylcellulose) (HPC) 95 % of control | [4] 95 % of control | [5] 97 % of control

O=C1C=CC2(CCC23C=CC(=O)O3)O1 (stereo not given)
inactive: dose: 13.0 mg/kg/injection, schedule: Q01DX Z (ip), vehicle: saline 96 % of control | dose: 20.0 mg/kg/injection, schedule: Q01DX Z (ip), vehicle: saline 102 % of control | dose: 30.0 mg/kg/injection, schedule: Q01DX Z (ip), vehicle: saline 104 % of control | dose: 45.0 mg/kg/injection, schedule: Q01DX Z (ip), vehicle: saline 102 % of control and 109 % of control

O=C(Nc1cccc2ccccc12)c1cccc([N+](=O)[O-])c1C(=O)O
inactive: [6] 99 % of control | [7] 92 % of control | [8] 96 % of control

O=c1[nH]c(=O)n(C2OC(CO)C(O)C2O)c2scnc12 (stereo not given)
inactive: dose: 100.0 mg/kg/injection, schedule: Q01DX005 (ip), vehicle: saline 98 % of control | dose: 200.0 mg/kg/injection, schedule: Q01DX005 (ip), vehicle: saline 100 % of control

O=[N+]([O-])Cc1c2ccccc2nc2ccccc12
inactive: [9] 87 % of control | [10] 87 % of control | [11] 87 % of control

O=C(/C=C(\c1ccccc1)N1CC1)c1ccccc1
inactive: [12] 106 % of control | [13] 110 % of control

Cc1ccc(Cl)cc1NC(=O)Nc1ccccc1Cl
inactive: [14] 92 % of control | [12] 101 % of control | [15] 91 % of control | [13] 95 % of control | [16] 93 % of control

CC1(C)N=C(N)N=C(N)N1c1cccc(C(=O)CCl)c1
inactive: dose: 25.0 mg/kg/injection, schedule: Q01DX001 (ip), vehicle: saline with Tween-80 95 % of control | dose: 50.0 mg/kg/injection, schedule: Q01DX001 (ip), vehicle: saline with Tween-80 103 % of control | [17] 101 % of control

O=C(Nc1ccc2ccccc2c1)C1CC1
inactive: [6] 100 % of control | [7] 107 % of control | [8] 115 % of control

NNC(=O)C1CCCCN1 (stereo not given)
inactive: dose: 100.0 mg/kg/injection, schedule: Q01DX001 (ip), vehicle: water 98 % of control | dose: 200.0 mg/kg/injection, schedule: Q01DX001 (ip), vehicle: water 100 % of control | dose: 400.0 mg/kg/injection, schedule: Q01DX001 (ip), vehicle: water 104 % of control

CC(=O)C1=CN(C(C)(C)C)COC1C (stereo not given)
inactive: [4] 104 % of control | [14] 95 % of control | [15] 110 % of control

O=C1OCCN1C(=O)c1ccc(C(=O)N2CCOC2=O)cc1
inactive: [5] 94 % of control | dose: 100.0 mg/kg/injection, schedule: Q01DX007 (ip), vehicle: Klucel (hydroxypropylcellulose) (HPC) 89 % of control | [12] 97 % of control | dose: 200.0 mg/kg/injection, schedule: Q01DX001 (ip), vehicle: Klucel (hydroxypropylcellulose) (HPC) 87 % of control | dose: 200.0 mg/kg/injection, schedule: Q01DX007 (ip), vehicle: Klucel (hydroxypropylcellulose) (HPC) 92 % of control | [13] 101 % of control | dose: 400.0 mg/kg/injection, schedule: Q01DX001 (ip), vehicle: Klucel (hydroxypropylcellulose) (HPC) 92 % of control | dose: 400.0 mg/kg/injection, schedule: Q01DX007 (ip), vehicle: Klucel (hydroxypropylcellulose) (HPC) 90 % of control | [16] 95 % of control

O=C1CCCCCC/C(=N/O)CCCO1
inactive: [17] 94 % of control | dose: 200.0 mg/kg/injection, schedule: Q01DX001 (ip), vehicle: saline with Tween-80 97 % of control | dose: 400.0 mg/kg/injection, schedule: Q01DX001 (ip), vehicle: saline with Tween-80 97 % of control

CCOC(=O)C(=O)Nc1onc(C)c1NC(=O)C(=O)OCC
inactive: [10] 89 % of control | [11] 89 % of control | dose: 400.0 mg/kg/injection, schedule: Q01DX009 (ip), vehicle: saline with Tween-80 92 % of control

C=CCOC(=S)S
inactive: dose: 100.0 mg/kg/injection, schedule: Q01DX001 (ip), vehicle: saline 95 % of control | dose: 200.0 mg/kg/injection, schedule: Q01DX001 (ip), vehicle: saline 94 % of control

CC1=CC(=O)C(C(O)(C(F)(F)Cl)C(F)(F)Cl)C(C)(C)C1 (stereo not given)
inactive: [14] 98 % of control | dose: 100.0 mg/kg/injection, schedule: Q04DX003 (ip), vehicle: saline with Tween-80 102 % of control | [15] 103 % of control | dose: 200.0 mg/kg/injection, schedule: Q04DX003 (ip), vehicle: saline with Tween-80 96 % of control | dose: 400.0 mg/kg/injection, schedule: Q01DX009 (ip), vehicle: Klucel (hydroxypropylcellulose) (HPC) 97 % of control | dose: 400.0 mg/kg/injection, schedule: Q04DX003 (ip), vehicle: saline with Tween-80 109 % of control

N#C/C(=C\c1cccnc1)c1ccc(Br)cc1
inactive: dose: 100.0 mg/kg/injection, schedule: Q01DX009 (ip), vehicle: saline sonified 98 % of control | dose: 200.0 mg/kg/injection, schedule: Q01DX009 (ip), vehicle: saline sonified 100 % of control | dose: 400.0 mg/kg/injection, schedule: Q01DX009 (ip), vehicle: saline sonified 93 % of control

NCCc1ccc(Nc2ccnc3cc(Cl)ccc23)cc1
inactive: dose: 75.0 mg/kg/injection, schedule: Q01DX001 (ip), vehicle: saline 109 % of control | dose: 150.0 mg/kg/injection, schedule: Q01DX001 (ip), vehicle: saline 101 % of control | dose: 300.0 mg/kg/injection, schedule: Q01DX001 (ip), vehicle: saline 98 % of control

O=C1NNC(=O)NN1
inactive: [4] 97 % of control | [14] 103 % of control | [12] 100 % of control and 101 % of control | [15] 105 % of control | [13] 95 % of control | [16] 94 % of control

CC12CCC3c4ccc(OCC5CO5)cc4CCC3C1CCC2=O (stereo not given)
inactive: [9] 97 % of control | [10] 97 % of control | [11] 94 % of control

O=C1c2cc(Cl)ccc2-c2c(F)cc(Cl)cc21
inactive: [1] 103 % of control | [2] 105 % of control | [3] 105 % of control

Reference: PubChem BioAssay AID248 (DTP/NCI, 2004)
